Results on four molecules are retold here after patent US20130095094A1, “ASSAY” (University of Leicester, priority 2010, published 2013).

One data set has as its target T1, human TLR-2 (Homo sapiens, UniProt O60603).
T1 construct: host or cells: HEK-293
Kind of data set: TLR-transfection NF-κB reporter (pELAM) assay, HEK-293 cells transfected with TLR-2 and CD14. It counts as cell-based. As for the experimental part:
(§1) For transfection assays, human embryonic kidney (HEK)-293 cells were plated in 96 well plates at 10^4 cells per well and transfected after 24 h using Genejuice (Novagen) according to manufacturer's instructions. The following amounts of constructs were added to each well: 30 ng of human TLR-2, TLR-5 or TLR-4 (co-expressing MD-2), 30 ng of pCD14 and 10 ng of NF-κB-sensitive luciferase-reporter construct (pELAM). Cells were grown for 3 days post transfection prior to 18 h challenge. Promoter expression was calculated as fold induction relative to cells cultured in medium alone +/−SD. Endogenous expression of TLRs in HEK-293 has been ruled out by RT-PCR by the inventor.
(§2) Log-transformed PAMP concentrations were then plotted against fold-induction of NF-κB reporter to generate a standard curve. […] For example, results presented as 200 ng/g BLP-equivalent means that each gramme of food contains TLR-2-stimulants with a capacity to stimulate TLR-2-signalling equal to that of 200 ng Pam3CSK4. Food extracts were measured at 1:10 dilution in DMEM/10% FCS in duplicate. If signals exceeded the range of the standard curve, further dilutions were prepared and reassayed.
Samples were then maintained at 100 ° C. for 1 -120 min, before cooling, diluting 1:10 in DMEM/10% FCS and applying to HEK-293 cells transfected with TLR-2 or TLR-4/MD2 for measurement of capacity to induce TLR-signalling as described above. […] Samples were then neutralised by addition of NaOH solution and applied to TLR-transfected HEK-293 cells as described above.
As a negative control, parallel samples were supplemented with an equal molarity of NaCl to account for increased salinity of samples due to acid/base neutralisation. […] Control samples were also heat-treated for 10 minutes.
TLR-stimulants were quantified in both whole heat-treated saliva (100° C. for 10 minutes), intended to reflect total bacteria-associated TLR-stimulants, and in saliva diluted 1:10 in PBS and filter-sterilised (0.22 μm, Acrodisc), intended to reflect soluble TLR-stimulants in human saliva. A recently developed bioassay based upon the measurement of NF-κB-dependent reporter activation in TLR-deficient HEK-293 cells transfected with human TLR2, TLR4/MD2 or TLR5, and callibrated with TLR2-, TLR4- or TLR5-stimulating standards (Erridge et al., 2010, Public Library of Science One 5, e9125), was used to quantify TLR-stimulants in saliva samples. Briefly, cells were plated in 96-well plates at 2×10^4 cells per well and transfected after 24 h using Genejuice (Novagen). Amounts of construct per well were 30 ng of human TLR2, TLR4 (co-expressing MD-2) or TLR5 (Invivogen), 30 ng of CD14 and 10 ng of firefly luciferase-reporter construct driven by the NF-KB dependent E-selectin promoter (pELAM). 3 days after transfection, cells were challenged in triplicate with heat-treated or sterile-filtered saliva samples diluted 1:100 in DMEM/1%FCS. […] After 18 h, NF-κB-dependent reporter expression was measured using Promega Dual-Glo reagent. Fold induction of reporter was calculated relative to cells cultured in medium alone and a standard curve was prepared by plotting fold NF-κB induction vs concentration for each standard PAMP. […] For example, results presented as 200 ng/ml lipopeptide-equivalents indicate that 1 ml of saliva contains TLR2-stimulants with a capacity to stimulate TLR2-signalling equal to that of 200 ng Pam3CSK4. The coefficient of variance of the assay averaged ˜20%. […]

Data set [1] has as its system HEK-293 cells transfected with CD14 alone. Kind of data set: NF-κB reporter in HEK-293 cells transfected with CD14 and reporter alone (no corresponding TLR). It counts as cell-based, human. Conditions: data not shown.
The next data set relates to human monocytes. Kind of data set: Challenge of human monocytes with food extracts, TNF-α (L929 bioassay) / IL-6 (ELISA) secretion. The data set is classed as cell-based. The conditions noted are these: 25 μg/ml OxPAPC, filter-sterilised food extracts, 4 h.
The subject of data set [2] is HEK-293 cells transfected with CD14 alone. The conditions noted are these: 10 μg/ml, positive control; cited from earlier work.
For another data set, the target named is T2, human TLR-5 (Homo sapiens, UniProt O60602).
T2 construct: host or cells: HEK-293
T2 sequence (O60602 21-858): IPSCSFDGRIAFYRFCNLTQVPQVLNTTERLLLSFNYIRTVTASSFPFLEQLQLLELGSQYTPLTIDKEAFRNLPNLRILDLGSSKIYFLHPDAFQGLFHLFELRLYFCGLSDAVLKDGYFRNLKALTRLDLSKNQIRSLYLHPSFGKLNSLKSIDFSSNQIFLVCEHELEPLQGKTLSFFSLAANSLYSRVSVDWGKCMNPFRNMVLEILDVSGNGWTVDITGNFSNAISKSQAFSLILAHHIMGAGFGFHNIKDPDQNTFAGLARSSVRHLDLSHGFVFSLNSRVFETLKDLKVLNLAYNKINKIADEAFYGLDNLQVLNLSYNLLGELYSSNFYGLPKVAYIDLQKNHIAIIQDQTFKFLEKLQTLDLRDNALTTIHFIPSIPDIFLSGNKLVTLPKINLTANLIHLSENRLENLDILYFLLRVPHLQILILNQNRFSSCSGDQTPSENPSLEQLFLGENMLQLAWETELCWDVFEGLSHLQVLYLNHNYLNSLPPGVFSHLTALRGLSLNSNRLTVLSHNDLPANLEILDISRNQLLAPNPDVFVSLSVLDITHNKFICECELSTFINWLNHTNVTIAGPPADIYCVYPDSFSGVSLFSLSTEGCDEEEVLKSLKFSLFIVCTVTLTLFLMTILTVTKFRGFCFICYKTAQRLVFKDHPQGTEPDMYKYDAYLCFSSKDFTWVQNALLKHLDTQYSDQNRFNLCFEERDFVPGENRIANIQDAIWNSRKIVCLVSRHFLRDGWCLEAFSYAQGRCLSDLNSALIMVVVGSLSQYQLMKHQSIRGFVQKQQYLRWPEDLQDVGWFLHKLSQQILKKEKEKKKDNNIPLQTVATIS
Kind of data set: TLR-transfection NF-κB reporter (pELAM) assay, HEK-293 cells transfected with TLR-5 and CD14. It counts as cell-based. As for the experimental part:
as §1, §2
TLR-stimulants were quantified in both whole heat-treated saliva (100° C. for 10 minutes), intended to reflect total bacteria-associated TLR-stimulants, and in saliva diluted 1:10 in PBS and filter-sterilised (0.22 μm, Acrodisc), intended to reflect soluble TLR-stimulants in human saliva. A recently developed bioassay based upon the measurement of NF-κB-dependent reporter activation in TLR-deficient HEK-293 cells transfected with human TLR2, TLR4/MD2 or TLR5, and callibrated with TLR2-, TLR4- or TLR5-stimulating standards (Erridge et al., 2010, Public Library of Science One 5, e9125), was used to quantify TLR-stimulants in saliva samples. […] After 18 h, NF-κB-dependent reporter expression was measured using Promega Dual-Glo reagent. Fold induction of reporter was calculated relative to cells cultured in medium alone and a standard curve was prepared by plotting fold NF-κB induction vs concentration for each standard PAMP. […]

Where [3] appears, read: pH 1.0 with HCl 2 h or 3 h, then neutralised.

T1 sequence (O60603 21-784): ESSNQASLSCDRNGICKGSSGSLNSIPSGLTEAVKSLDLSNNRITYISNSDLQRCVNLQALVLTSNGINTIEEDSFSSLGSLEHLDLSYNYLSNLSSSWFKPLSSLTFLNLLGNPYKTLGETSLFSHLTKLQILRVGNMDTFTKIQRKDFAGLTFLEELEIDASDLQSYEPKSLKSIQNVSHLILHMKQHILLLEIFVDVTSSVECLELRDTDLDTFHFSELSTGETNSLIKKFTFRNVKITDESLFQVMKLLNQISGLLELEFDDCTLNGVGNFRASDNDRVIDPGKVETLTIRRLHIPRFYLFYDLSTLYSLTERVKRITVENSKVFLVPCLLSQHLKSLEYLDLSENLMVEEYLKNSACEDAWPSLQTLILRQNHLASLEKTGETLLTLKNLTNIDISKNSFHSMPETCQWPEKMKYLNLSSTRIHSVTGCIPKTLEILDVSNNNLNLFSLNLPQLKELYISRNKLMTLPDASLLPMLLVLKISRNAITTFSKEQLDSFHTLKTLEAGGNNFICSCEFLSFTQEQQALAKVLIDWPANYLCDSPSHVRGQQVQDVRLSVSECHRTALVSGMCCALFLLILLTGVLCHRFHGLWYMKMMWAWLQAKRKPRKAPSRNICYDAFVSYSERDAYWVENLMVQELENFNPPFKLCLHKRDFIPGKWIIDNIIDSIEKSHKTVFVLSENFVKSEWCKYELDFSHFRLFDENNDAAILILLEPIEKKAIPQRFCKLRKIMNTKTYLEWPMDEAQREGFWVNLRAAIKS
Experimental for human monocytes: Venous blood was collected by venepuncture from consenting healthy human subjects according to the guidelines laid down in the Declaration of Helsinki and all procedures involving human subjects were approved by the University of Leicester College of Medicine Research Ethics Committee. Written informed consent was obtained from all subjects. Peripheral blood mononuclear cells (PBMC) were prepared by density gradient centrifugation at 800 g for 25 min using Histopaque-1077 (Sigma). Recovered cells were washed twice in PBS solution, resuspended in RPMI/10% fetal calf serum (FCS) (Sigma) and plated in 96-well plates at 4×10^5 cells per well. Monocytes were prepared from PBMC by plastic adherence (1 h at 37° C.), followed by gentle washing to remove non-adherent cells. Remaining monocytes were then challenged by adding a 1:20 dilution of each sterile-filtered food extract in tissue culture medium. After incubation at 37° C. for 4 h, supernatants were removed for assay of TNF-α content by L929-cell bioassay as described in Delahooke et al. (1995, Infect. Immun. 63, 840-846), or IL-6 levels were measured by ELISA (R&D) after 18 h.

With Pam3CSK4, the “Biological activity (TLR-2 signalling) after heating” value at human TLR-2 (100 ng/ml, 100° C. for up to 2 hours) is “not measurably reduced”. The “Minimum concentration to which transfected cells were sensitive” value at human TLR-2 (TLR-2 transfected HEK-293) stood at 0.1 ng/mL. On human TLR-2 (setting [3]), the “Capacity to stimulate TLR-2 after low pH treatment” value is “did not affect”. In addition, on human TLR-2 (proteinase-K 37° C. 1 h), the “Biological activity (TLR-2) after protease treatment” value is on record as “unaffected”. Also, the “Activation of HEK-293 cells transfected with CD14 alone, or with non-corresponding TLRs” value in data set [1] is listed as “unable to activate”.

For the molecule “oxidised palmitoyl-arachidonyl phosphocholine [OxPAPC]”, at human TLR-2 (25 μg/ml OxPAPC, filter-sterilised saliva 1:100, 18 h), the “Inhibition of TLR2-dependent signalling induced by patient saliva samples” value is given as “significantly blocked”. The “TNF-α secretion in response to each stimulant-containing foodstuff in presence of OxPAPC” value in the data set on human monocytes is on record as “completely abrogated”.

For polyinosinic acid [PolyI:C], the “NF-κB activation in HEK-293 cells” value in data set [2] is “stimulates NF-κB activation independently of TLR2, TLR4 or TLR5”.

B1: flagellin: S. typhimurium flagellin purchased from Invivogen, TLR5 standard (protein, UniProt P06179 2-495, looked up)
Flagellin: AQVINTNSLSLLTQNNLNKSQSALGTAIERLSSGLRINSAKDDAAGQAIANRFTANIKGLTQASRNANDGISIAQTTEGALNEINNNLQRVRELAVQSANSTNSQSDLDSIQAEITQRLNEIDRVSGQTQFNGVKVLAQDNTLTIQVGANDGETIDIDLKQINSQTLGLDTLNVQQKYKVSDTAATVTGYADTTIALDNSTFKASATGLGGTDQKIDGDLKFDDTTGKYYAKVTVTGGTGKDGYYEVSVDKTNGEVTLAGGATSPLTGGLPATATEDVKNVQVANADLTEAKAALTAAGVTGTASVVKMSYTDNNGKTIDGGLAVKVGDDYYSATQNKDGSISINTTKYTADDGTSKTALNKLGGADGKTEVVSIGGKTYAASKAEGHNFKAQPDLAEAAATTTENPLQKIDAALAQVDTLRSDLGAVQNRFNSAITNLGNTVNNLTSARSRIEDSDYATEVSNMSRAQILQQAGTSVLAQANQVPQNVLSLLR
On to B1, for which the “Biological activity (TLR5 signalling) after heating” value in the data set with human TLR-5 (100 ng/ml, 100° C., by 1 h) is “almost completely abolished”. The “Biological activity (TLR5) after low pH treatment” value with human TLR-5 (setting [3]) is “increased”. The “Bioactivity (TLR5) after protease treatment” value with human TLR-5 (proteinase-K 37° C. 1 h) is listed as “abolished”. For the same molecule, the “Activation of HEK-293 cells transfected with CD14 alone, or with non-corresponding TLRs” value in data set [1] is reported as “unable to activate”.
